Assay results taken from patent publication US12509452B2, “Substituted-isoxazoline-containing aromatic compound, preparation method therefor, herbicidal composition and use thereof” (QINGDAO KINGAGROOT CHEMICAL COMPOUND CO., LTD., priority 2019, dated 2025).

How the values were obtained:
Assay in all cases: weeding effect in post-emergence stage
Assay type in all cases: in vivo
Conyza japonica = system: Conyza japonica
Procedure, shortened: (§1)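 Read-out is fresh weight growth control rate, binned into levels 0-5 (Level 5 above 85%, Level 0 below 5%), recorded 3 weeks after spraying and averaged over three repeats. Plants were treated at the 2-3 leaf stage with 7.5-500 g a.i./ha plus methyl oleate synergist.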

Alopecurus japonicus = system: Alopecurus japonicus
Procedure, shortened: as §1

Beckmannia syzigachne = system: Beckmannia syzigachne
Procedure, shortened: as §1

Rorippa indica = system: Rorippa indica
Procedure, shortened: as §1

| SMILES | weeding effect in post-emergence stage, Conyza japonica (activity level) (Conyza japonica; dose 15 g a.i./ha) | weeding effect in post-emergence stage, Alopecurus japonicus (activity level) (Alopecurus japonicus; dose 15 g a.i./ha) | weeding effect in post-emergence stage, Beckmannia syzigachne (activity level) (Beckmannia syzigachne; dose 15 g a.i./ha) | weeding effect in post-emergence stage, Rorippa indica (activity level) (Rorippa indica; dose 15 g a.i./ha) | weeding effect in post-emergence stage, Conyza japonica (activity level) (Conyza japonica; dose 125 g a.i./ha) | weeding effect in post-emergence stage, Alopecurus japonicus (activity level) (Alopecurus japonicus; dose 125 g a.i./ha) | weeding effect in post-emergence stage, Beckmannia syzigachne (activity level) (Beckmannia syzigachne; dose 125 g a.i./ha) | weeding effect in post-emergence stage, Rorippa indica (activity level) (Rorippa indica; dose 125 g a.i./ha) | weeding effect in post-emergence stage, Conyza japonica (activity level) (Conyza japonica; dose 7.5 g a.i./ha) | weeding effect in post-emergence stage, Alopecurus japonicus (activity level) (Alopecurus japonicus; dose 7.5 g a.i./ha) | weeding effect in post-emergence stage, Beckmannia syzigachne (activity level) (Beckmannia syzigachne; dose 7.5 g a.i./ha) | weeding effect in post-emergence stage, Rorippa indica (activity level) (Rorippa indica; dose 7.5 g a.i./ha) |
| --- | --- | --- | --- | --- | --- | --- | --- | --- | --- | --- | --- | --- |
| COC(=O)[C@@]1(c2ccccc2)CC(c2cc(-n3c(=O)n(C)c(=S)n(C)c3=O)c(F)cc2Cl)=NO1 [56(S)] | 5 (Level 5: growth control rate is above 85%) | 5 (Level 5: growth control rate is above 85%) | 5 (Level 5: growth control rate is above 85%) | 5 (Level 5: growth control rate is above 85%) | – | – | – | – | – | – | – | – |
| COC(=O)[C@]1(Cc2ccccc2)CC(c2cc(-n3c(=O)n(C)c(=S)n(C)c3=O)c(F)cc2Cl)=NO1 [59(S)] | 5 (Level 5: growth control rate is above 85%) | 5 (Level 5: growth control rate is above 85%) | 5 (Level 5: growth control rate is above 85%) | 5 (Level 5: growth control rate is above 85%) | – | – | – | – | – | – | – | – |
| CCOC(=O)[C@]1(CC)CC(c2cc(-n3c(=O)cc(C(F)(F)F)n(C)c3=O)c(F)cc2Cl)=NO1 [105(S)] | – | – | – | – | 5 (Level 5: growth control rate is above 85%) | 5 (Level 5: growth control rate is above 85%) | 5 (Level 5: growth control rate is above 85%) | 5 (Level 5: growth control rate is above 85%) | – | – | – | – |
| CCOC(=O)[C@@]1(C2CC2)CC(c2cc(-n3c(=O)cc(C(F)(F)F)n(C)c3=O)c(F)cc2Cl)=NO1 [119(S)] | – | – | – | – | 5 (Level 5: growth control rate is above 85%) | 5 (Level 5: growth control rate is above 85%) | 5 (Level 5: growth control rate is above 85%) | 5 (Level 5: growth control rate is above 85%) | 4 (Level 4: growth control rate is greater than or equal to 60% and less than 85%) | 5 (Level 5: growth control rate is above 85%) | 5 (Level 5: growth control rate is above 85%) | 4 (Level 4: growth control rate is greater than or equal to 60% and less than 85%) |
| CCOC(=O)[C@@]1(C2CCC2)CC(c2cc(-n3c(=O)cc(C(F)(F)F)n(C)c3=O)c(F)cc2Cl)=NO1 [126(S)] | 5 (Level 5: growth control rate is above 85%) | 5 (Level 5: growth control rate is above 85%) | 5 (Level 5: growth control rate is above 85%) | 5 (Level 5: growth control rate is above 85%) | – | – | – | – | – | – | – | – |
| COC(=O)[C@@]1(F)CC(c2cc(-n3c(=O)cc(C(F)(F)F)n(C)c3=O)c(F)cc2Cl)=NO1 [129(S)] | 5 (Level 5: growth control rate is above 85%) | 5 (Level 5: growth control rate is above 85%) | 5 (Level 5: growth control rate is above 85%) | 5 (Level 5: growth control rate is above 85%) | – | – | – | – | – | – | – | – |
| CCOC(=O)[C@]1(CF)CC(c2cc(-n3c(=O)cc(C(F)(F)F)n(C)c3=O)c(F)cc2Cl)=NO1 [132(S)] | 5 (Level 5: growth control rate is above 85%) | 5 (Level 5: growth control rate is above 85%) | 5 (Level 5: growth control rate is above 85%) | 5 (Level 5: growth control rate is above 85%) | – | – | – | – | – | – | – | – |
| CCOC(=O)[C@]1(C(F)F)CC(c2cc(-n3c(=O)cc(C(F)(F)F)n(C)c3=O)c(F)cc2Cl)=NO1 [134(S)] | 5 (Level 5: growth control rate is above 85%) | 5 (Level 5: growth control rate is above 85%) | 5 (Level 5: growth control rate is above 85%) | 5 (Level 5: growth control rate is above 85%) | – | – | – | – | – | – | – | – |
| CCOC(=O)[C@]1(C(F)(F)F)CC(c2cc(-n3c(=O)cc(C(F)(F)F)n(C)c3=O)c(F)cc2Cl)=NO1 [135(S)] | 5 (Level 5: growth control rate is above 85%) | 5 (Level 5: growth control rate is above 85%) | 5 (Level 5: growth control rate is above 85%) | 5 (Level 5: growth control rate is above 85%) | – | – | – | – | – | – | – | – |
| CCOC(=O)[C@@]1(CCF)CC(c2cc(-n3c(=O)cc(C(F)(F)F)n(C)c3=O)c(F)cc2Cl)=NO1 [136(S)] | 5 (Level 5: growth control rate is above 85%) | 5 (Level 5: growth control rate is above 85%) | 5 (Level 5: growth control rate is above 85%) | 5 (Level 5: growth control rate is above 85%) | – | – | – | – | – | – | – | – |
| CCOC(=O)[C@@]1(CO)CC(c2cc(-n3c(=O)cc(C(F)(F)F)n(C)c3=O)c(F)cc2Cl)=NO1 [142(S)] | 5 (Level 5: growth control rate is above 85%) | 5 (Level 5: growth control rate is above 85%) | 5 (Level 5: growth control rate is above 85%) | 5 (Level 5: growth control rate is above 85%) | – | – | – | – | – | – | – | – |
| CCOC(=O)[C@@]1(C=O)CC(c2cc(-n3c(=O)cc(C(F)(F)F)n(C)c3=O)c(F)cc2Cl)=NO1 [152(S)] | 5 (Level 5: growth control rate is above 85%) | 5 (Level 5: growth control rate is above 85%) | 5 (Level 5: growth control rate is above 85%) | 5 (Level 5: growth control rate is above 85%) | – | – | – | – | – | – | – | – |
| CCOC(=O)[C@@]1(C(C)C)CC(c2cc(-n3c(=O)n(C)c(=S)n(C)c3=S)c(F)cc2Cl)=NO1 [204(S)] | 5 (Level 5: growth control rate is above 85%) | 5 (Level 5: growth control rate is above 85%) | 5 (Level 5: growth control rate is above 85%) | 5 (Level 5: growth control rate is above 85%) | – | – | – | – | – | – | – | – |
| CCCC[C@@]1(C(=O)OCC)CC(c2cc(-n3c(=O)n(C)c(=S)n(C)c3=S)c(F)cc2Cl)=NO1 [205(S)] | 5 (Level 5: growth control rate is above 85%) | 5 (Level 5: growth control rate is above 85%) | 5 (Level 5: growth control rate is above 85%) | 5 (Level 5: growth control rate is above 85%) | – | – | – | – | – | – | – | – |
| CCOC(=O)[C@]1(C(F)(F)F)CC(c2cc(-n3c(=O)n(C)c(=S)n(C)c3=S)c(F)cc2Cl)=NO1 [206(S)] | 5 (Level 5: growth control rate is above 85%) | 5 (Level 5: growth control rate is above 85%) | 5 (Level 5: growth control rate is above 85%) | 5 (Level 5: growth control rate is above 85%) | – | – | – | – | – | – | – | – |
| CCOC(=O)[C@@]1(COC=O)CC(c2cc(-n3c(=O)cc(C(F)(F)F)n(C)c3=O)c(F)cc2Cl)=NO1 [218(S)] | 5 (Level 5: growth control rate is above 85%) | 5 (Level 5: growth control rate is above 85%) | 5 (Level 5: growth control rate is above 85%) | 5 (Level 5: growth control rate is above 85%) | – | – | – | – | – | – | – | – |
| CCOC(=O)[C@@]1(COC(=O)C(=O)O)CC(c2cc(-n3c(=O)cc(C(F)(F)F)n(C)c3=O)c(F)cc2Cl)=NO1 [220(S)] | 5 (Level 5: growth control rate is above 85%) | 5 (Level 5: growth control rate is above 85%) | 5 (Level 5: growth control rate is above 85%) | 5 (Level 5: growth control rate is above 85%) | – | – | – | – | – | – | – | – |
| COC(=O)[C@]1(OC)CC(c2cc(-n3c(=O)cc(C(F)(F)F)n(C)c3=O)c(F)cc2Cl)=NO1 [226(S)] | 5 (Level 5: growth control rate is above 85%) | 5 (Level 5: growth control rate is above 85%) | 5 (Level 5: growth control rate is above 85%) | 5 (Level 5: growth control rate is above 85%) | – | – | – | – | – | – | – | – |
| CCOC(=O)[C@]1(CC)CC(c2cc(-n3c(=S)cc(C(F)(F)F)n(C)c3=O)c(F)cc2Cl)=NO1 [228(S)] | – | – | – | – | 5 (Level 5: growth control rate is above 85%) | 5 (Level 5: growth control rate is above 85%) | 5 (Level 5: growth control rate is above 85%) | 5 (Level 5: growth control rate is above 85%) | – | – | – | – |
